From patent publication US20200239530A1, “COMPOUNDS AND METHODS OF MODULATING PROTEIN DEGRADATION” (Vividion Therapeutics, Inc., priority 2017, published 2020)

Target: T1, POGZ Pogo transposable element with ZNF domain (Homo sapiens, UniProt Q7Z3K3)
T1 construct: Cells were resuspended in cold PBS on ice and sonicated with a probe sonicator to achieve lysis; endogenous in cells
T1 sequence (Q7Z3K3 1-1410): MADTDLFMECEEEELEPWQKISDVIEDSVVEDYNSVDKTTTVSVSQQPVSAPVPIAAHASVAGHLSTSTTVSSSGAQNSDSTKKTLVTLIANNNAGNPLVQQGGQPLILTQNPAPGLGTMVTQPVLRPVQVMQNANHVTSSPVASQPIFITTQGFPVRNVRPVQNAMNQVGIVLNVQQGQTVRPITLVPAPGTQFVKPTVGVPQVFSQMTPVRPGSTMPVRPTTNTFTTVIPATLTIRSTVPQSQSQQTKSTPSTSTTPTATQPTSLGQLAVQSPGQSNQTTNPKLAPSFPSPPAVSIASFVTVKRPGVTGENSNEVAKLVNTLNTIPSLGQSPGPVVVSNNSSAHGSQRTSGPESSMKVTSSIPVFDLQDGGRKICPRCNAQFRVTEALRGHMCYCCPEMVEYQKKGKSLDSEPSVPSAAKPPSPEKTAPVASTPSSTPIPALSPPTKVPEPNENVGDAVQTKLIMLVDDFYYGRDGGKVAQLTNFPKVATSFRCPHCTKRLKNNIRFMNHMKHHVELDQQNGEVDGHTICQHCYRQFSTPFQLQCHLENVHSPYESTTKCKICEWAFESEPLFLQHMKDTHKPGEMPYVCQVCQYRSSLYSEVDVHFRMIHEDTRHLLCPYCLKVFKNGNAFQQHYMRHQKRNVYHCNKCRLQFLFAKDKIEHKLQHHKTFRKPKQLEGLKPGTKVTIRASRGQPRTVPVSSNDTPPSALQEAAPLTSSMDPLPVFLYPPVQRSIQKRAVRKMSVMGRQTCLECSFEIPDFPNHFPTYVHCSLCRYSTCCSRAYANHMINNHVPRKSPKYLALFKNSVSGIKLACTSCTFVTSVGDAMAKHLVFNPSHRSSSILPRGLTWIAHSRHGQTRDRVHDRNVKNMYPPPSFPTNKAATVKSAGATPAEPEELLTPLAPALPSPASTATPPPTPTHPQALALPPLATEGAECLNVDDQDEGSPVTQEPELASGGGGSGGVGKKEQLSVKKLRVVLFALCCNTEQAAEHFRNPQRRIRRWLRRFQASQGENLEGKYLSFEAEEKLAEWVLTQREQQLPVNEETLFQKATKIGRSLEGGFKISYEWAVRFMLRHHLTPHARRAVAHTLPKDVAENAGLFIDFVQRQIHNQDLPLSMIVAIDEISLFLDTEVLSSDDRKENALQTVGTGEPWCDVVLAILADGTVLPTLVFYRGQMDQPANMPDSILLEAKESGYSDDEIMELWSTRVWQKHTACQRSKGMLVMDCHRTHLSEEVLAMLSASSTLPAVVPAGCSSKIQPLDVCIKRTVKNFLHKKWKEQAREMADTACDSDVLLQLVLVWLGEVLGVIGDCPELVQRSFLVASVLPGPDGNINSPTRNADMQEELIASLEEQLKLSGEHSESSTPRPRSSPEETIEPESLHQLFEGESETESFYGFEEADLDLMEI
Test: Cysteine liganding, probe competition
Type: binding
Procedure, shortened: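 Steps: sonicate cells in cold PBS; treat 5 mg/ml lysate with compound (25° C, 1 hr); add desthiobiotin iodoacetamide probe from a 10 mM stock (25° C, 1 hr); precipitate, reduce, alkylate, digest with trypsin; capture labelled peptides on streptavidin for analysis.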

| Compound | Liganded (POGZ Res# 547, uniprot Q7Z3K3) | 100 Max (uniprot Q7Z3K3) | 100 ave (uniprot Q7Z3K3) | 500 Max (uniprot Q7Z3K3) | 500 ave (uniprot Q7Z3K3) |
| --- | --- | --- | --- | --- | --- |
| COc1ccc2c(c1)CCCN2C(=O)CCl [KB02] | YES |  |  |  |  |
| O=C(CCl)Nc1cc(C(F)(F)F)cc(C(F)(F)F)c1 [KBO3] |  | 2.21 | −8.9575 | 15.64 | 13.995 |
